Legend:
Assay in all cases: IC50 Determination
[1] = target: T1, Aldehyde dehydrogenase, dimeric NADP-preferring (Homo sapiens, UniProt P30838)
T1 sequence (P30838 whole entry): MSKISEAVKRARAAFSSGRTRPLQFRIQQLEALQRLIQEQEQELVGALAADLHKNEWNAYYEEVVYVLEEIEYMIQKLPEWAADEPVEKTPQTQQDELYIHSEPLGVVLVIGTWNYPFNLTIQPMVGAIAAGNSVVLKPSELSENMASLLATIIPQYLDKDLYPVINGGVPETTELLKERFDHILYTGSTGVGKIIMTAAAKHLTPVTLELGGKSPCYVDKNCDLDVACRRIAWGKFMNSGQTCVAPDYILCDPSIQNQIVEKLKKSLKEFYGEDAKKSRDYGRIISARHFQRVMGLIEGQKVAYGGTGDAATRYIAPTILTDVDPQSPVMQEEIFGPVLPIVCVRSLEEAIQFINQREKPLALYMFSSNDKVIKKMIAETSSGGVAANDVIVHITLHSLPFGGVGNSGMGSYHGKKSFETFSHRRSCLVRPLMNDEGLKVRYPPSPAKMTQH
Protocol: (§1) To determine the IC50 values for CB29 and its analogues, propionaldehyde was used as the substrate for ALDH1A1 and ALDH2 and benzaldehyde was used as the substrate for ALDH3A1. The assays were performed at various concentrations of inhibitors, ranging from 50 nM to 250 uM, following 1 min preincubation. All reactions were initiated by the addition of the aldehyde substrate.

[2] = target: T2, Aldehyde dehydrogenase 1A1 (Homo sapiens, UniProt P00352)
T2 sequence (P00352 whole entry): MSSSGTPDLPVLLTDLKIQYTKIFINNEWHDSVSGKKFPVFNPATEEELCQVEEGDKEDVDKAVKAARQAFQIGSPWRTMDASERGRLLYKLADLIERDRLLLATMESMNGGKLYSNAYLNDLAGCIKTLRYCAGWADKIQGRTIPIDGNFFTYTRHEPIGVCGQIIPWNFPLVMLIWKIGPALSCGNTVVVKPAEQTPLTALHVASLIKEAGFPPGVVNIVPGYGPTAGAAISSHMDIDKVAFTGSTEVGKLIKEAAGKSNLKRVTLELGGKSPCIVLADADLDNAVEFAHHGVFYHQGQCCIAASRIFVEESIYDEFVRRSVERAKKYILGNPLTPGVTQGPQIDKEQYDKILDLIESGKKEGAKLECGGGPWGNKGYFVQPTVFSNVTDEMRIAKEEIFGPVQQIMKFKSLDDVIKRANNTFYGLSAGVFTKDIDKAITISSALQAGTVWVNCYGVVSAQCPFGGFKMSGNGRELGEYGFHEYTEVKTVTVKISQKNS
Protocol: as §1

[3] = target: T1, Aldehyde dehydrogenase, dimeric NADP-preferring; remark: listed apart in the source

SMILES | IC50 [1] [µM] | IC50 [2] [µM] | Ki [3] [µM]
CN(C)c1ccc(Nc2ccc(S(=O)(=O)C(F)(F)F)cc2[N+](=O)[O-])cc1 [CB29 (derivative 5)] | 17 | – | –
CS(=O)(=O)c1ccc(Nc2ccc(NCC3CCCC3)cc2)c(S(C)(=O)=O)c1 [CB29 (derivative 6)] | 40 | 32 | –
CC(C)NS(=O)(=O)c1ccc(Nc2cccc(NC3CC3)c2)c([N+](=O)[O-])c1 [CB29 (derivative 9)] | 26.3 | – | –
CC(C)C(=O)Nc1ccc(Nc2ccc(S(C)(=O)=O)cc2[N+](=O)[O-])cc1 [CB29 (derivative 12)] | 19.6 | 16.8 | –
CS(=O)(=O)c1ccc(Nc2ccc3c(c2)CCC3)c([N+](=O)[O-])c1 [CB29 (derivative 17)] | 26.9 | – | –
CC(=O)Nc1ccc(Nc2ccc(S(C)(=O)=O)cc2[N+](=O)[O-])cc1 [CB29] | 16 | – | 4.7

More lines, main results first:

IC50 [1] [µM] | IC50 [2] [µM] | SMILES | Ki [3] [µM]
42.3 | 11.6 | CNS(=O)(=O)c1ccc(Nc2ccc(NC(=O)CC(C)C)cc2)c([N+](=O)[O-])c1 [CB29 (derivative 13)] | –
100 | 8.3 | CCN(CC)S(=O)(=O)c1ccc(Nc2ccc(NC(=O)C(C)C)cc2)c([N+](=O)[O-])c1 [CB29 (derivative 14)] | –
– | 50 | CC(Nc1ccc(S(C)(=O)=O)cc1[N+](=O)[O-])C(=O)O (configuration not stated) [CB29 (derivative 16)] | –
30.5 | – | CC(C)NS(=O)(=O)c1ccc(Nc2ccc3c(c2)CCC3)c([N+](=O)[O-])c1 [CB29 (derivative 18)] | –
25.6 | – | CC(C)NS(=O)(=O)c1ccc(NC2CCN(CC(=O)Nc3ccccc3)CC2)c([N+](=O)[O-])c1 [CB29 (derivative 19)] | –
100 | – | CC(=O)Nc1ccc(Oc2ccc(S(=O)(=O)C(F)(F)F)cc2[N+](=O)[O-])cc1 [CB29 (derivative 20)] | –

Reference: BindingDB's records for doi:10.1002/cbic.201300625 (Indiana University, 2014)
